Test results reported in patent EP0369035A1, “AGENT FOR TREATING PANCREATITIS OR THE LIKE” (priority 1988, dated 1989).

What was measured:
[1] = target: T1, human plasmin (Homo sapiens, UniProt P00747); experiment: Anti-plasmin activity: inhibition of S-2251 degradation; format: biochemical; conditions: substrate S-2251, 37°C, pH7.4; read-out: Plasmin S-2251 (I50)
T1 construct: 50 µl of 0.2 casein units/ml of human plasmin
Experimental: ii) Assay method of inhibition of S-2251 degradation
The test substance was dissolved in a 0.05 M Tris-HC1 (pH7.4) buffer to make a total volume of 400 µl, and 50 µl of a 3 mM S-2251 solution was added to the solution. The mixture was incubated at 37°C for 5 minutes in an incubator, and after the addition of 50 µl of 0.2 casein units/ml of human plasmin, and incubation at 37°C for 4 minutes, the reaction was terminated by an addition of 50 µl of 50% acetic acid.

[2] = target: T1, human plasmin; experiment: Anti-plasmin activity: inhibition of fibrinolysis (fibrin clot lysis time); format: biochemical; conditions: concentration giving a fibrin clot lysis time twice that of control, 37°C, pH7.4; read-out: Plasmin Fibrin (I50)
[3] = target: T2, human plasma kallikrein (Homo sapiens, UniProt P03952); experiment: Anti-plasma kallikrein activity: inhibition of S-2302 degradation; format: biochemical; conditions: substrate S-2302, 37°C, pH 7.8; read-out: Plasma kallikrein S-2302 (I50)
T2 construct: 50 µl of 0.12 units/ml human plasma kallikrein solution
T2 sequence (P03952 391-638 limits assumed): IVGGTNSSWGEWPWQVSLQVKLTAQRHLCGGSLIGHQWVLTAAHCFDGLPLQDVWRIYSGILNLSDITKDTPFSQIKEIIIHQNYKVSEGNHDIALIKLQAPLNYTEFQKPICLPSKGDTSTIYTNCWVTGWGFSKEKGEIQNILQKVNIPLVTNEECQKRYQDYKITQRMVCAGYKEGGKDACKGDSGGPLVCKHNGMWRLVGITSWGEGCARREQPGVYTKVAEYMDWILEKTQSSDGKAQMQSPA
T2 sequence (P03952 20-390 partner limits assumed): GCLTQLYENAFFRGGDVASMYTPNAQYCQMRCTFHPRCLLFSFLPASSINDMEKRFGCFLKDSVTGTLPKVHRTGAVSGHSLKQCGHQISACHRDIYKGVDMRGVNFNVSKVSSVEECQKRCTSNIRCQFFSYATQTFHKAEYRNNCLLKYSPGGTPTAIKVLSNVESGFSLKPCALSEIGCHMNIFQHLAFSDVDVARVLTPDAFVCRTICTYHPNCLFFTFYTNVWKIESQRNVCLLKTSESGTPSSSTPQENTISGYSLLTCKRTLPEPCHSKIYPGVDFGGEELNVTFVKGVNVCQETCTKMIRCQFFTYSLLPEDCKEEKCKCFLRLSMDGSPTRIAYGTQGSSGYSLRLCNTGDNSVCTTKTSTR
Experimental: 2) Assay of anti-plasma kallikrein activity Assay method of inhibition of S-2302 degradation
(§1) The test substance was dissolved in a 0.05 M Tris-HC1 (pH 7.8) buffer to make a total volume of 400 µl, and 50 µl of a 2 mM S-2302 solution was added to the solution. After incubation at 37°C for 5 minutes in an incubator, an addition of 50 µl of 0.12 units/ml human plasma kallikrein solution, and incubation at 37°C for 5 minutes, the reaction was terminated by an addition of 50 µl of 50% acetic acid.

[4] = target: human urokinase (Homo sapiens, UniProt P00749); experiment: Anti-urokinase activity: inhibition of S-2444 degradation; format: biochemical; conditions: substrate S-2444, 37°C, pH 8.8; read-out: Urokinase S-2444 (I50)
Experimental: 3) Assay of anti-urokinase activity Assay method of inhibition of S-2444 degradation
as §1, with “8.8)” for “7.8)”, “1” for “2”, “S-2444” for “S-2302”, “mixture.” for “solution.”, “500” for “0.12”, “urokinase” for “plasma kallikrein”

[5] = tested on: experimental pancreatitis; experiment: Effect on experimental pancreatitis (sodium taurochorate + trypsin into the common bile duct), survival ratio; format: in vivo, SD-rats; conditions: 80 μg/kg/min. x 80 min. continuous infusion, rat
From the text: [II] Effect on experimental pancreatitis
SD-rats, body weight of about 200 g were, starved overnight, and 10 to 24 animals were used in one group. Sodium pentobarbital was intraperioneally administered to anesthetize each rat, and then a cannula was inserted to the femoral vein for the administration of the test substance. After abdominal surgery, the bile duct was blocked at a part thereof proximate to the liver, by a clip, a polyethylene tube was inserted to the common bile duct at a part thereof most proximate to the duodenum, and 0.1 ml of solution containing 2 mg sodium taurochorate and 1000 U trypsin dissolved in physiological saline was injected retrogrodely. After removal of the clip and tube, the common bile duct was ligated and the abdomen was closed. Note, the test substance was dissolved in an injective 5% glucose solution, and in the case of a continuous infusion, the solution was administered over 80 minutes starting from 10 minutes before the generation of pancreatitis. In the case of oral administration, the test substance was administered through an oral catheter 30 minutes before the generation of pancreatitis. After 24 hours and 48 hours from the generation of pancreatitis, the survival ratio of the animals was calculated and compared with a control group.

[6] = tested on: experimental shock; experiment: Effect on experimental shock (endotoxin-induced), survival ratio; format: in vivo, ICR-mice; conditions: dose of 30 mg/kg intraperitoneally 15 minutes before endotoxin 40 mg/kg, mouse
Experimental: [IV] Effect on experimental shock
ICR-mice, body weight of about 25 g, were starved overnight. The test substance was dissolved in an injective 5% glucose solution and intraperioneally administered, and 15 minutes later, endotoxin (E. coli 0127:B8, Difco, U.S.) dissolved in a physiological saline was intraperioneally administered to an amount of 40 mg/kg body weight.

[7] = in vivo; conditions: mouse, intravenous, ICR male mice, up-and-down method, read-out: Acute toxicity (LD50)
Experimental: ICR male mice 5 to 10 weeks old were used. The test substance was dissolved in a 5% dimethylsulfoxide aqueous solution, and the solution was intravenously administered in an amount of 0.1 to 0.2 ml/10 g body weight. An LD50 value was calculated by up-and-down method.

[8] = target: T3, bovine factor Xa (Bos taurus, UniProt P00743); experiment: Anti-FXa activity: inhibition of S-2222 degradation; format: biochemical; conditions: substrate S-2222, 37°C, pH 8.3; read-out: FXa S-2222 (I50)
T3 construct: 0.05 ml of 0.3 vial/ml bovine factor Xa
T3 sequence (P00743 234-492 limits assumed): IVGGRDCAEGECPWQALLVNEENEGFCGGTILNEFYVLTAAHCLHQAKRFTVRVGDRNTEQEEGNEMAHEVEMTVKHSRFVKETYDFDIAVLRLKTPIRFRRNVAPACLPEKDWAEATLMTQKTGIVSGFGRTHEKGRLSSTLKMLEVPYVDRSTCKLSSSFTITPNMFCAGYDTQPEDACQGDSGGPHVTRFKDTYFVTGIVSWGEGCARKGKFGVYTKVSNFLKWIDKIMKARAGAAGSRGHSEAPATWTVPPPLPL
T3 sequence (P00743 41-180 partner limits assumed): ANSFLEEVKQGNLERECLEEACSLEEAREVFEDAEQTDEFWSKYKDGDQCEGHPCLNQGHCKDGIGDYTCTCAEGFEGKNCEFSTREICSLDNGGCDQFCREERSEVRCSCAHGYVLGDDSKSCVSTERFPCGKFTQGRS
Experimental: 4) Assay of anti-FXa activity Assay method of inhibition of S-2222 degradation
To 0.4 ml of the test substance dissolved in a 0.05 M Tris-HC1 (pH 8.3) buffer is added 0.05 ml of 3 mM S-2222 solution, and after incubation at 37°C for about 4 minutes, an addition of 0.05 ml of 0.3 vial/ml bovine factor Xa, and a reaction at 37°C for 4 minutes, the - reaction was terminated by adding 0.05 ml of 50% acetic acid.

[9] = tested on: experimental DIC; experiment: Effect on experimental DIC and MOF (endotoxin-induced); format: in vivo, SD-rats; conditions: Dose 100 μg/kg/min infusion, rat, 4 hours after endotoxin 10 mg/kg; for CPK: Table 5-1
Experimental: [III] Effect on experimental DIC
SD-rats, body weight of about 200 g, were starved overnight. Sodium pentobarbital was intraperioneally administered to anesthetize a rat, and then a cannula was inserted to the femoral vein, and the test substance dissolved in an injective 5% glucose solution was continually infused. Then, 10 minutes from the start of the injection, endotoxin (E. coli 0127:B8, Difco, U.S.) dissolved in physiological saline was injected through the tail vein to an amount of 10 mg/kg body weight, and 4 hours from the administration of endotoxin, the abdomen was opened, blood was obtained from the abdominal aorta, and platelets (Plt), fibrinogen (Fbg), fibrin degradation product (FDP), glutamic oxaloacetic transamirase (GOT), creatinine phosphokinase (CPK), and blood urin nitrogen (BUN) were measured.

T1 sequence (P00747 581-810 limits assumed): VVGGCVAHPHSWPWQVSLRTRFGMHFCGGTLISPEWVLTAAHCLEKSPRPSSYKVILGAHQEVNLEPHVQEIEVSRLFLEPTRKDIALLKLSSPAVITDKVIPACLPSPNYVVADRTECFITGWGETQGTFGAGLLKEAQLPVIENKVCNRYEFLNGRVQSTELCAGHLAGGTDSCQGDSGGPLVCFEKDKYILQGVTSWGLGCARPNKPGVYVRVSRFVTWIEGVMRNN
T1 sequence (P00747 97-580 partner limits assumed): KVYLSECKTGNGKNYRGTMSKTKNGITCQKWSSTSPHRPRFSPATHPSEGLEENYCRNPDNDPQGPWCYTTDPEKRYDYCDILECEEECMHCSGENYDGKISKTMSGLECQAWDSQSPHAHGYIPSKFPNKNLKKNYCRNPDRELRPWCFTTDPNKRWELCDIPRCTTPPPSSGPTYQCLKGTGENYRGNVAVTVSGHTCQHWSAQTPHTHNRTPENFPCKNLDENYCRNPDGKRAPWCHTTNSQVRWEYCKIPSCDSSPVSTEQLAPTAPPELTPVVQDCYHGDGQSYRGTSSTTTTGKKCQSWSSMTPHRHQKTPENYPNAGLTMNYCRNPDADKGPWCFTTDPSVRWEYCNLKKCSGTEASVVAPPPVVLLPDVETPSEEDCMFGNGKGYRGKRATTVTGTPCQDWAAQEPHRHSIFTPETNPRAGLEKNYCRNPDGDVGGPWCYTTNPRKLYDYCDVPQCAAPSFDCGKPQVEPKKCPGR

| SMILES | IC50 [1] [µM] | IC50 [2] [µM] | IC50 [3] [µM] | IC50 [4] [µM] | Effect on experimental pancreatitis Survival ratio(%) After 24 hours [5] [%] | Effect on experimental pancreatitis Survival ratio(%) After 48 hours [5] [%] | Effect on experimental shock (Survival ratio (%) after 24 hours) [6] [%] | LD50 [7] [mg/kg] | IC50 [8] [µM] | BUN [9] [mg/dL] | FDP [9] [µg/mL] | Fbg [9] [mg/dL] | GOT [9] [U/ml] | Plat [9] | CPK [9] [U/1] |
| --- | --- | --- | --- | --- | --- | --- | --- | --- | --- | --- | --- | --- | --- | --- | --- |
| NC[C@H]1CC[C@H](C(=O)NC(Cc2cccc(Oc3ccccc3)c2)C(=O)Nc2ccnc(Cl)c2)CC1 (mixture of isomers) [Compound 11] | 31 | 10 | 0.43 | 190 | 42.0 | 26.7 | 84 | > 100 |  |  |  |  |  |  |  |
| NC[C@H]1CC[C@H](C(=O)NC(Cc2cccc(Oc3ccccc3)c2)C(=O)Nc2ccncc2)CC1 (mixture of isomers) [Compound 13] |  |  |  |  |  |  | 79 | 85 | > 200 |  |  |  |  |  |  |
| NC[C@H]1CC[C@H](C(=O)NC(Cc2cccc(Oc3ccccc3)c2)C(=O)Nc2cccnc2)CC1 (mixture of isomers) [Compound 14] | 98 | 70 | 2 | 250 | 58.3 | 41.7 |  | 50 |  |  |  |  |  |  |  |
| CC(=O)c1ccc(NC(=O)[C@H](Cc2ccccc2)NC(=O)[C@H]2CC[C@H](CN)CC2)cc1 [Compound 2] | 36 | 21 | 0.85 | 58 |  |  | 50 | 50 | 540 |  |  |  |  |  |  |
| NC[C@H]1CC[C@H](C(=O)N[C@@H](Cc2ccc(OCc3ccccc3)cc2)C(=O)Nc2ccncc2)CC1 [Compound 4] | 3.4 | 0.7 | 1.2 | 32 |  |  | 82 | 85 | 90 |  |  |  |  |  |  |
| CC(=O)c1ccc(NC(=O)[C@H](Cc2cccc(Oc3ccccc3)c2)NC(=O)[C@H]2CC[C@H](CN)CC2)cc1 [Compound 7] |  |  |  |  |  |  | 90 | 60 | > 200 |  |  |  |  |  |  |
| NC[C@H]1CC[C@H](C(=O)N[C@@H](Cc2ccc(OCc3ccccc3)cc2)C(=O)Nc2ccncn2)CC1 [Compound 15] | 15 | 6.8 | 5.1 | 110 | 50.0 | 25.0 |  | > 100 |  |  |  |  |  |  |  |
| NC[C@H]1CC[C@H](C(=O)N[C@@H](Cc2ccc(OCc3ccccc3)cc2)C(=O)Nc2ccc(CCC(=O)O)cc2)CC1 [Compound 16] | 12 | 9 | 1.8 | 210 | 58.3 | 58.3 |  | > 100 |  |  |  |  |  |  |  |
| NCC1CCC(C(=O)NC(Cc2ccccc2)C(=O)Nc2ccc(CC(=O)O)cc2)CC1 (centres unmarked) [Compound 17] | 760 | 460 | 1.8 | 610 |  |  |  |  | > 1000 | 34 ± 11 | 16 to 64 | 143 ± 23 | 146 ± 21 | 63 ± 2 x 10^4/μl | 22 ± 6 |
| CC(=O)c1ccc(NC(=O)[C@H](Cc2ccc(OCc3ccccn3)cc2)NC(=O)c2ccc(CN)cc2)cc1 [Compound 19] | 4.2 | 2.5 | 12 |  | 50.0 | 33.3 |  |  |  | 30 ± 4 | 16 to 32 | 147 ± 16 | 219 ± 39 | 80 ± 11 x 10^4/μl | 19 ± 2 |
| CCOC(=O)CCc1ccc(NC(=O)C(Cc2ccc(OCc3ccccc3)cc2)NC(=O)C2CCC(CN)CC2)cc1 (centres unmarked) [Compound 21] |  |  |  |  | 45.5 | 36.4 |  | 100 |  |  |  |  |  |  |  |
| NCC1CCC(C(=O)NC(Cc2ccccc2)C(=O)Nc2ccc(C(=O)O)cc2)CC1 (centres unmarked) [Compound 22] | > 1000 | 560 | 2.7 | > 1000 |  |  |  | > 100 | > 400 | 30 ± 3 | 32 to 64 | 107 ± 18 | 195 ± 35 | 62 ± 12 x 10^4/μl | 14 ± 3 |
| NCC1CCC(C(=O)NC(Cc2ccc(OCc3ccccc3)cc2)C(=O)Nc2ccncc2)CC1 (centres unmarked) [Compound 23] | 120 | 140 | 360 | > 1000 |  |  | 51 | 60 |  |  |  |  |  |  |  |
| CC(=O)c1ccc(NC(=O)[C@@H](Cc2ccc(OCc3ccccn3)cc2)NC(=O)C2CCC(CN)CC2)cc1 (some centres unmarked) [Compound 24] | 78 | 240 | > 1000 | > 1000 |  |  |  |  |  |  |  |  |  |  |  |
| NCC1CCC(C(=O)N[C@H](Cc2ccc([N+](=O)[O-])cc2)C(=O)Nc2ccc(C(=O)c3ccccc3)cc2)CC1 (some centres unmarked) [Compound 25] | 240 | 58 | > 250 | 170 |  |  | 70 |  |  |  |  |  |  |  |  |
